In the experiment the target is T1, GLUT4 (Homo sapiens, UniProt P14672).
T1 construct: expressed in transfected cells; host or cells: Saccharomyces cerevisiae hxt0 strain SDY.022 (EBY.S7 Δerg4)
T1 sequence (P14672 1-509): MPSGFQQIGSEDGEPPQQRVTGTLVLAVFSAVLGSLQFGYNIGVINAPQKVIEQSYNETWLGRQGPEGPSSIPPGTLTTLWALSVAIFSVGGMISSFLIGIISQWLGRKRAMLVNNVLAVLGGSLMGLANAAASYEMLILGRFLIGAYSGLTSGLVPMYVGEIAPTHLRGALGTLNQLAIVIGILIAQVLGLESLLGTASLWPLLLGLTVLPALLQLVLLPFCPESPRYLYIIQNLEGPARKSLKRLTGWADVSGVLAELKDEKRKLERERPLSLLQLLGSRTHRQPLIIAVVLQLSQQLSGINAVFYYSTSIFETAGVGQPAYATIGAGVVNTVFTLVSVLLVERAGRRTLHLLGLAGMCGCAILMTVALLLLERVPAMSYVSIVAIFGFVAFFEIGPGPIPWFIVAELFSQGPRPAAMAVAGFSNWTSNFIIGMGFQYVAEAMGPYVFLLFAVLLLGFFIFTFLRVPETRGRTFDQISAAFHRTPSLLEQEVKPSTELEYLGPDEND
The experiment is described as follows: Glucose transport assay, GLUT4 expressed in hxt^0 yeast cells SDY.022. The format is cell-based. The following applies: for IC50: hxt^0 yeast cells, 5 mM glucose, read-out: IC50 for GLUT4 transport inhibition; for Potency for GLUT4 relative to GLUT3 (higher for GLUT4): IC50 GLUT4 versus IC50 GLUT3. The source says: The most studied GLUTs are Class 1 GLUTs (GLUT1-4) and a Class 2 GLUT, GLUT5 (a fructose-only transporter). GLUT3 sequence homology and identity is 79% and 64%, 71% and 52%, 74% and 57%, and 60% and 38% with GLUT1, GLUT2, GLUT4, and GLUT5, respectively. The hxt^0 yeast cell systems expressing functional GLUT1-4[65],[69] and GLUT5[66] allow us to determine the in vivo transport activity (substrate uptake by a GLUT into whole cells) for individual GLUTs and establish GLUT3 inhibitor selectivity for these transporters. The transport assay was performed as described for GLUT3, but at the substrate concentrations that correspond to the KM for each GLUT (i.e., 5 mM glucose for GLUT1 and GLUT4[65], 15 mM glucose for GLUT2∆loopS_Q455R[63], and 10 mM fructose for GLUT5S72Y[66]).
The transport activity was assayed as the substrate uptake in hexose transporter-deficient yeast cells expressing functional GLUT1[65], GLUT2[69], GLUT4[65], or GLUT5[66]. Substrate final concentration in the assay matched the corresponding substrate KM and was 5 mM glucose for GLUT1 and GLUT4, 15 mM glucose for GLUT2∆loopS_Q455R, and 10 mM fructose for GLUT5S72Y. Transport assay was initiated by the addition of C^14-labeled substrate and stopped after 10 min (see “Materials and methods” for details). […] Standard deviations for experimental points come from at least three independent measurements.
The plasmids containing functional constructs of GLUT1-5 were transformed in the corresponding hxt^0 strains[65],[66],[73] (EBY.VW4000 for GLUT5S72Y, EBY.S7 for GLUT1, GLUT2∆loopS_Q455R, GLUT3 and GLUT3S66Y, and SDY.022 for GLUT4) and grown on 2% (w/v) agar plates of the respective media supplemented with 1% (w/v) maltose. An initial culture of ~ 10 ml was started with a few colonies and grown for 2–3 days if the media was SC-uracil with 1% (w/v) maltose (GLUT1, GLUT3, GLUT4) or 1–2 days if the media was YEP with 1% (w/v) maltose and 100 µg/ml geneticin G418 (GLUT2∆loopS_Q455R and GLUT5S72Y). Cells were washed once in the corresponding media in which maltose was substituted with 0.1–2% hexose substrate for the expressing GLUT (i.e., SC-uracil, 2% (w/v) glucose for GLUT1; SC-uracil, 0.2% (w/v/) glucose for GLUT3 and GLUT4; YEP, 0.2% (w/v) glucose, 100 µg/ml geneticin G418 for GLUT2∆loopS_Q455R, and YEP, 2% (w/v) fructose for GLUT5 S72Y). Then, cells were transferred in the same media so that OD600nm ~ 0.5 and grown further for 1–2 days.
For transport activity assay, cells in the hexose media were centrifuged (1000×g, 5 min, room temperature), washed once with PBS buffer (10 mM Na2HPO4, 1.8 mM KH2PO4, 2.7 mM KCl, 137 mM NaCl, pH 7.4), and resuspended in PBS buffer at an OD600nm ~ 10; each assay contained 100 µl of this cell solution. Transport activity assay was started by adding C^14-hexose at a substrate concentration corresponding to the respective KM (5 mM glucose for GLUT1 or GLUT4, 3 mM glucose for GLUT3 or 1.5 mM glucose for GLUT3S66Y, 15 mM glucose for GLUT2∆loopS_Q455R, and 10 mM fructose for GLUT5S72Y); for determining the glucose KM in GLUT3 and GLUT3S66Y, substrate concentrations were varied accordingly. […] The filtration membranes were transferred into scintillation vials with 10 ml of Scintillation Solution (BioSafeII; Research Products International, Mount Prospect, IL, USA), and vortexed briefly. The radioactivity was determined with a scintillation counter (Tri-carb 2900TR, Perkin Elmer, USA).

“And” between values parts separate entries of the source, which are not always exact repeats. Identical values can stand only once. “Also recorded” adds a separate entry of the source.

Take `Cc1cccnc1OC1CCN(c2cc(N3CCCC3CO)ncn2)CC1` (stereo not shown) [G3iC]: the IC50 – broadly, the concentration that inhibits the measured activity by half – was 25.6 ± 6.6 µM.
On the same count and under the same terms, to `O=C(Nc1cccc(Cl)c1)c1cccc(NC(=O)c2cccc([N+](=O)[O-])c2)c1` [G3iE, N-{3-[(3-chloroanilino)carbonyl]phenyl}-3-nitrobenzamide] belongs 12.4 ± 2.5 µM.
For the molecule `Cc1cc(NC(=O)CCC2Cc3ccccc3NC2=O)nc(-c2ccccc2)n1` (stereo not shown) [G3iD], the “Potency for GLUT4 relative to GLUT3 (higher for GLUT4)” value is listed as “~ fivefold” and the IC50 amounted to 3.88 ± 0.57 µM. In addition, under “2.5, 5 and 10 mM glucose, 0, 4 and 8 µM G3iD, read-out: Ki for GLUT4 inhibition (Dixon plot)”, the Ki – broadly, the dissociation constant of the complex between target and ligand, obtained from inhibition or displacement – is 2.65 µM and ~2.7 µM. Moreover, the “Inhibition mode in GLUT4” value (Dixon plot, versus glucose) is “competitive with glucose; also recorded: competitive inhibitor; also recorded: competitive inhibition mode”.
`COc1ccccc1-n1c(/C=C/c2ccc(O)cc2)nc2ccc(Br)cc2c1=O` [G3iB, 6-bromo-2-[(E)-2-(4-hydroxyphenyl)ethenyl]-3-(2-methoxyphenyl)quinazolin-4(3H)-one]: the IC50 stood at 12.7 ± 2.3 µM.
As for `CC(=O)Nc1ccc(S(=O)(=O)Nc2ccc(Nc3cc(N(C)C)nc(C)n3)cc2)cc1` [G3iA, N-(4-{[(4-{[6-(dimethylamino)-2-methylpyrimidin-4-yl]amino}phenyl)amino]sulfonyl}phenyl)acetamide], the IC50 is greater than 50 µM.
As to `Cc1ccccc1CN(Cc1nnc(C(C)(C)C)o1)c1ccc2nc(O)[nH]c2c1` [G3iF], the “Potency for GLUT4 relative to GLUT3 (higher for GLUT4)” value was “~ fivefold” and the IC50 amounted to 6.94 ± 1.37 µM.

The record behind these values is PMC8791944, “GLUT3 inhibitor discovery through in silico ligand screening and in vivo validation in eukaryotic expression systems” (Scientific Reports, 2022).
